Data on 19 compounds can be found in patent US20260347373A1, “HETEROCYCLIC COMPOUNDS, COMPOSITIONS THEREOF, AND METHODS OF TREATMENT THEREWITH” (BeOne Medicines I GmbH, priority 2023, published 2026).

Molecules are shown by their SMILES. Read-outs that look alike come from different tables or passages of the source.

One test has as its target WT KRAS (Homo sapiens, UniProt P01116). Put plainly: KRAS WT Probe Displacement Assay (TR-FRET, GDP-loaded). In kind it is binding. The text has this: (§1) The synthetic routes of probe 1 and 2, which have been disclosed in PCT/CN2022/070676, are hereby incorporated herein.
For another test, the target named is KRAS G12D (Homo sapiens, UniProt P01116, G12D). The test is described as follows: KRAS G12D Probe Displacement Assay (TR-FRET, GDP-loaded). Type of test: binding.
KRAS G12D, sequence (P01116 1-188 isoform P01116-2 G12D): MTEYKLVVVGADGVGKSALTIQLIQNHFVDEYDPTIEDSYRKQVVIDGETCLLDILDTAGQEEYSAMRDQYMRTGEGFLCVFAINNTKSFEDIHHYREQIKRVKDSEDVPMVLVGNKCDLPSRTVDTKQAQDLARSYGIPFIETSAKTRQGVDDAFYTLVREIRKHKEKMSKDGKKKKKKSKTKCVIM
Text: as §1

Where [1] appears, read: KRAS WT, read-out: KRAS^WT Probe Displacement Assay IC50.
[2] abbreviates: KRAS G12D, read-out: KRAS^G12D Probe Displacement Assay IC50.
The mark [3] stands for this setting: KRAS^WT Probe Displacement Assay IC50, KRAS WT.
Setting [4] is: KRAS^G12D Probe Displacement Assay IC50, KRAS G12D.

WT KRAS, sequence (P01116 1-188 isoform P01116-2): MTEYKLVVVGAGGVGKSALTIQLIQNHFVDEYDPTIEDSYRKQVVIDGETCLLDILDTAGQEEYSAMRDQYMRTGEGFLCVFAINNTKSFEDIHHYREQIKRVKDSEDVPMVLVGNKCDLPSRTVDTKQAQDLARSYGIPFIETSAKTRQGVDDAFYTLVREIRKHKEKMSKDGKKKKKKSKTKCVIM

As to `Cc1cc(N)cc(-c2nc3c4c(nc(O[C@@H](C)[C@@H]5CCCN5CC5CC5)nc4c2F)N2C[C@H]4CC[C@H](N4)[C@H]2CCO3)c1C(F)(F)F` [Example 230, 3-((6aR,7S,10R)-13-((S)-1-((S)-1-(cyclopropylmethyl)pyrrolidin-2-yl)ethoxy)-1-fluoro-5,6,6a,7,8,9,10,11-octahydro-4-oxa-3,11a,12,14,15-pentaaza-7,10-methanocyclohepta[4,5]cycloocta[1,2,3-de]naphthalen-2-yl)-5-methyl-4-(trifluoromethyl)aniline], the IC50 was 3 to 1000 nM at WT KRAS (setting [1]) and below 0.3 nM on KRAS G12D (setting [2]).

Consider `Cc1cc(N)cc(-c2nc3c4c(nc(OCC5(CN6C[C@H]7C[C@H]7[C@H]6C)CC5)nc4c2F)N2C[C@H]4CC[C@H](N4)[C@H]2CCO3)c1C(F)(F)F` [Example 172, 3-((6aR,7S,10R)-1-fluoro-13-((1-(((1R,2R,5S)-2-methyl-3-azabicyclo[3.1.0]hexan-3-yl)methyl)cyclopropyl)methoxy)-5,6,6a,7,8,9,10,11-octahydro-4-oxa-3,11a,12,14,15-pentaaza-7,10-methanocyclohepta[4,5]cycloocta[1,2,3-de]naphthalen-2-yl)-5-methyl-4-(trifluoromethyl)aniline], for which the figures for the IC50 on WT KRAS (setting [1]) and on KRAS G12D (setting [2]) were 3 to 1000 nM and below 0.3 nM, respectively.

Turning to `Cc1nc(N)cc(-c2nc3c4c(nc(OC[C@]5(CN(C)C)CC5(F)F)nc4c2F)N2C[C@H]4CC[C@H](N4)[C@H]2CCO3)c1C(F)(F)F` [Example 48, 4-((6aR,7S,10R)-13-(((R)-1-((dimethylamino)methyl)-2,2-difluorocyclopropyl)methoxy)-1-fluoro-5,6,6a,7,8,9,10,11-octahydro-4-oxa-3,11a,12,14,15-pentaaza-7,10-methanocyclohepta[4,5]cycloocta [1,2,3-de]naphthalen-2-yl)-6-methyl-5-(trifluoromethyl)pyridin-2-amine], the IC50 at WT KRAS (setting [1]) was 3 to 1000 nM; on KRAS G12D (setting [2]) it was below 0.3 nM.

For the compound `Cc1cc(N)cc(-c2nc3c4c(nc(OC[C@@]5(C)CCCN(C6CCOCC6)C5)nc4c2F)N2C[C@H]4CC[C@H](N4)[C@H]2CCO3)c1C(F)(F)F` [Example 195, 3-((6aR,7S,10R)-1-fluoro-13-(((S)-3-methyl-1-(tetrahydro-2H-pyran-4-yl)piperidin-3-yl)methoxy)-5,6,6a,7,8,9,10,11-octahydro-4-oxa-3,11a,12,14,15-pentaaza-7,10-methanocyclohepta[4,5]cycloocta[1,2,3-de]naphthalen-2-yl)-5-methyl-4-(trifluoromethyl)aniline], the IC50 was 0.3 to 3 nM at WT KRAS (setting [1]) and below 0.3 nM on KRAS G12D (setting [2]).

Take `Cc1cc(N)cc(-c2nc3c4c(nc(OCC5(CN6CCC7(C6)CC7(F)F)CC5)nc4c2F)N2C[C@H]4CC[C@H](N4)[C@H]2CCO3)c1C(F)(F)F` (single isomer, unassigned) [Example 138]: the IC50 was 0.3 to 3 nM at WT KRAS (setting [1]) and below 0.3 nM on KRAS G12D (setting [2]).

As to `Cc1cc(N)cc(-c2nc3c4c(nc(OCC5(CN(C)C)CC5(F)F)nc4c2F)N2C[C@H]4CC[C@H](N4)[C@H]2CCO3)c1C(F)(F)F` (single isomer, unassigned) [Example 17], the IC50 was 3 to 1000 nM on WT KRAS (setting [1]) and below 0.3 nM at KRAS G12D (setting [2]).

For the compound `Nc1cc(Cl)c(C(F)(F)F)c(-c2nc3c4c(nc(OC[C@@]56CCCN5CC(=C(F)F)C6)nc4c2F)N2C[C@H]4CC[C@H](N4)[C@H]2CCO3)c1` [Example 201, 3-chloro-5-((6aR,7S,10R)-13-(((S)-2-(difluoromethylene)tetrahydro-1H-pyrrolizin-7a(5H)-yl)methoxy)-1-fluoro-5,6,6a,7,8,9,10,11-octahydro-4-oxa-3,11a,12,14,15-pentaaza-7,10-methanocyclohepta[4,5]cycloocta[1,2,3-de]naphthalen-2-yl)-4-(trifluoromethyl)aniline], the results for the IC50 at WT KRAS (setting [1]) and on KRAS G12D (setting [2]) were 0.3 to 3 nM and below 0.3 nM, respectively.

Consider `Cc1cc(N)cc(-c2nc3c4c(nc(OCC5(CN6CC=C(F)CC6)CC5)nc4c2F)N2C[C@H]4CC[C@H](N4)[C@H]2CCO3)c1C(F)(F)F` [Example 178, 3-((6aR,7S,10R)-1-fluoro-13-((1-((4-fluoro-3,6-dihydropyridin-1(2H)-yl)methyl)cyclopropyl)methoxy)-5,6,6a,7,8,9,10,11-octahydro-4-oxa-3,11a,12,14,15-pentaaza-7,10-methanocyclohepta[4,5]cycloocta[1,2,3-de]naphthalen-2-yl)-5-methyl-4-(trifluoromethyl)aniline], for which the IC50 is 3 to 1000 nM at WT KRAS (setting [1]) and below 0.3 nM at KRAS G12D (setting [2]).

For the compound `Cc1cc(N)cc(-c2nc3c4c(nc(OC[C@]5(CN(C)C)CC5(F)F)nc4c2F)N2C[C@H]4CC[C@H](N4)[C@H]2CC(C)O3)c1C(F)(F)F` (single isomer, unassigned) [Example 248], the results for the IC50 at WT KRAS (setting [1]) and at KRAS G12D (setting [2]) were 0.3 to 3 nM and below 0.3 nM, respectively.

Regarding `Cc1cc(N)cc(-c2nc3c4c(nc(O[C@@H](C)[C@@H]5CCCN5CCF)nc4c2F)N2C[C@H]4CC[C@H](N4)[C@H]2CCO3)c1C(F)(F)F` [Example 250, 3-((6aR,7S,10R)-1-fluoro-13-((S)-1-((S)-1-(2-fluoroethyl)pyrrolidin-2-yl)ethoxy)-5,6,6a,7,8,9,10,11-octahydro-4-oxa-3,11a,12,14,15-pentaaza-7,10-methanocyclohepta[4,5]cycloocta[1,2,3-de]naphthalen-2-yl)-5-methyl-4-(trifluoromethyl)aniline], the IC50 at WT KRAS (setting [1]) was 3 to 1000 nM; at KRAS G12D (setting [2]) it was below 0.3 nM.

On to `Cc1cc(N)cc(-c2nc3c4c(nc(OCC5(CN6C[C@@H]7C[C@H]6CO7)CC5)nc4c2F)N2C[C@H]4CC[C@H](N4)[C@H]2CCO3)c1C(F)(F)F` [Example 68, 3-((6aR,7S,10R)-13-((1-(((1S,4S)-2-oxa-5-azabicyclo[2.2.1]heptan-5-yl)methyl)cyclopropyl)methoxy)-1-fluoro-5,6,6a,7,8,9,10,11-octahydro-4-oxa-3,11a,12,14,15-pentaaza-7,10-methanocyclohepta[4,5]cycloocta [1,2,3-de]naphthalen-2-yl)-5-methyl-4-(trifluoromethyl)aniline], for which the IC50 was 3 to 1000 nM on WT KRAS (setting [1]) and below 0.3 nM on KRAS G12D (setting [2]).

`Cc1cc(N)cc(-c2nc3c4c(nc(OCC5(C)CC(F)CN(C)C5)nc4c2F)N2C[C@H]4CC[C@H](N4)[C@H]2CCO3)c1C(F)(F)F` (stereo partly drawn) [Example 5, 3-((6aR,7S,10R)-1-fluoro-13-((5-fluoro-1,3-dimethylpiperidin-3-yl)methoxy)-5,6,6a,7,8,9,10,11-octahydro-4-oxa-3,11a,12,14,15-pentaaza-7,10-methanocyclohepta[4,5]cycloocta [1,2,3-de]naphthalen-2-yl)-5-methyl-4-(trifluoromethyl)aniline]: the half-maximal inhibitory concentration (IC50) at WT KRAS (setting [1]) was 3 to 1000 nM; at KRAS G12D (setting [2]), below 0.3 nM.

Take `Cc1cc(N)cc(-c2nc3c4c(nc(OCC5(CN6CC7CC7C6)CC5(F)F)nc4c2F)N2C[C@H]4CC[C@H](N4)[C@H]2CCO3)c1C(F)(F)F` (single isomer, unassigned) [Example 28]: the IC50 at WT KRAS (setting [1]) is 3 to 1000 nM; at KRAS G12D (setting [2]), below 0.3 nM.

As for `Cc1cc(N)cc(-c2nc3c4c(nc(OCC5(CN(C)C)CC5F)nc4c2F)N2C[C@H]4CC[C@H](N4)[C@H]2CCO3)c1C(F)(F)F` (single isomer, unassigned) [Example 136], the IC50 on WT KRAS (setting [3]) was 3 to 1000 nM; on KRAS G12D (setting [4]), below 0.3 nM.

`Cc1cc(N)cc(-c2nc3c4c(nc(OCC5(CN6CCOCC(F)C6)CC5)nc4c2F)N2C[C@H]4CC[C@H](N4)[C@H]2CCO3)c1C(F)(F)F` (stereo partly drawn) [Example 153, 3-((6aR,7S,10R)-1-fluoro-13-((1-((6-fluoro-1,4-oxazepan-4-yl)methyl)cyclopropyl)methoxy)-5,6,6a,7,8,9,10,11-octahydro-4-oxa-3,11a,12,14,15-pentaaza-7,10-methano-cyclohepta[4,5]cycloocta [1,2,3-de]naphthalen-2-yl)-5-methyl-4-(trifluoromethyl) aniline]: the IC50 on WT KRAS (setting [3]) was 3 to 1000 nM; at KRAS G12D (setting [4]), below 0.3 nM.

`Cc1cc(N)cc(-c2nc3c4c(nc(OCC5(CN6CCC(C(F)(F)F)C6)CC5)nc4c2F)N2C[C@H]4CC[C@H](N4)[C@H]2CCO3)c1C(F)(F)F` (stereo partly drawn) [Example 91, 3-((6aR,7S,10R)-1-fluoro-13-((1-((3-(trifluoromethyl)pyrrolidin-1-yl)methyl)cyclopropyl)methoxy)-5,6,6a,7,8,9,10,11-octahydro-4-oxa-3,11a,12,14,15-pentaaza-7,10-methanocyclohepta [4,5]cycloocta [1,2,3-de]naphthalen-2-yl)-5-methyl-4-(trifluoromethyl)aniline]: the IC50 on WT KRAS (setting [1]) was 3 to 1000 nM; on KRAS G12D (setting [2]), below 0.3 nM.

As for `Cc1cc(N)cc(-c2nc3c4c(nc(OCC5(C(C)N(C)C)CC5(F)F)nc4c2F)N2C[C@H]4CC[C@H](N4)[C@H]2CCO3)c1C(F)(F)F` (single isomer, unassigned) [Example 59], the IC50 is 3 to 1000 nM at WT KRAS (setting [1]) and below 0.3 nM on KRAS G12D (setting [2]).

With `Cc1cc(N)cc(-c2nc3c4c(nc(O[C@@H](C)[C@@H]5CCCN5C5CCOCC5)nc4c2F)N2C[C@H]4CC[C@H](N4)[C@H]2CCO3)c1C(F)(F)F` [Example 226, 3-((6aR,7S,10R)-1-fluoro-13-((S)-1-((S)-1-(tetrahydro-2H-pyran-4-yl)pyrrolidin-2-yl)ethoxy)-5,6,6a,7,8,9,10,11-octahydro-4-oxa-3,11a,12,14,15-pentaaza-7,10-methanocyclohepta[4,5]cycloocta[1,2,3-de]naphthalen-2-yl)-5-methyl-4-(trifluoromethyl)aniline], the results for the IC50 on WT KRAS (setting [1]) and at KRAS G12D (setting [2]) were 3 to 1000 nM and below 0.3 nM, respectively.

Consider `Cc1cc(N)cc(-c2nc3c4c(nc(OCC5(CN6CCC7(COC7)C6)CC5)nc4c2F)N2C[C@H]4CC[C@H](N4)[C@H]2CCO3)c1C(F)(F)F` [Example 189, 3-((6aR,7S,10R)-13-((1-((2-oxa-6-azaspiro[3.4]octan-6-yl)methyl)cyclopropyl)methoxy)-1-fluoro-5,6,6a,7,8,9,10,11-octahydro-4-oxa-3,11a,12,14,15-pentaaza[7,10]methanocyclohepta[4,5]cycloocta[1,2,3-de]naphthalen-2-yl)-5-methyl-4-(trifluoromethyl)aniline], for which the IC50 on WT KRAS (setting [1]) was 3 to 1000 nM; at KRAS G12D (setting [2]), below 0.3 nM.
